What was measured:
[1] = test system: SARS-CoV-2 isolate USA-WA1/2020; experiment: Virus plaque formation assay; format: cell-based
[2] = test system: SARS-CoV-2 isolate USA-WA1/2020; experiment: RT-PCR assay of viral load (viral RNA copy number in cell supernatant); format: cell-based

Method for Vero-E6 cells: Cytotoxicity was measured using Promega™ CytoTox 96™ Nonradioactive Cytotoxicity Assay (cat #G1780, Promega, Madison, Wis., USA).
Cytotoxicity was measured using the Promega™ CytoTox 96™ Nonradioactive Cytotoxicity Assay kit (cat #G1780, Promega, Madison, Wis., USA) in 50 μL reactions and 96-well format (cat #161093, Thermo Fisher Scientific, Waltham, Mass., USA) according to the manufacturer's protocol, except we used 20 μL of 10× Lysis Solution per 100 μL of sample and incubated at 37° C. for 30 minutes to generate the maximum LDH release control. The assay was measured using a BioTeK Synergy™ HT plate reader (model #7091000, BioTek, Winooski, Vt., USA) at an optical density of 490 nm (OD490). Cytotoxicity was measured for ≤60 μM Cmpd. x for all three cell lines (LLC-MK2, Vero E6, and Calu-3). LLC-MK2 cells were assessed for cytotoxicity at 5 days, whereas Vero E6 and Calu-3 cells were assessed for cytotoxicity every 24 hours from 1-5 days.

With `COc1ccc2c3c([nH]c2c1)C(CCCC1=NCCc2c1[nH]c1cc(OC)ccc21)=NCC3` [GZ440-6, 1,3-bis(7-methoxy-4,9-dihydro-3H-pyrido[3,4-b]indol-1-yl)propane] the “inhibition of plaque formation” value ([1]; 2.0 μM, 5.0 μM and 10.0 μM, Vero-E6 cells, 120 h after infection) was “negligible inhibition”, the “inhibition of plaque formation” value ([1]; 20 μM and above, Student's T-Test vs. Camostat/E64d P<0.05) was “inhibition of plaque formation was significant” and the “viral numbers (RNA copy number)” value ([2]; 40 μM (P<0.05), FIG. 3C) was “clear reduction in viral numbers”. The “viral load (viral RNA levels)” value ([2]; higher concentrations (20 and 40 μM), 120 hours after infection) was “decreased viral load”, the “viral load (viral RNA levels / viral numbers)” value ([2]; lower concentrations (2, 5, 10 μM), 120 hours after infection, listed as compound of the invention) was “no consistent reduction of viral numbers” and the average cytotoxicity values (Vero-E6 cells) was “not elevated above controls”.

Source: patent publication US11576902B2, “Inhibition of COVID-19 virus” (Ankh Life Sciences Limited, priority 2020, dated 2023)
